ChEMBL document CHEMBL1833943, “Synthesis and structure-activity relationships of varied ether linker analogues of the antitubercular drug (6S)-2-nitro-6-{[4-(trifluoromethoxy)benzyl]oxy}-6,7-dihydro-5h-imidazo[2,1-b][1,3]oxazine (PA-824)” (J Med Chem, 2011)
Converted amounts (≈) assume the structure as drawn.

What was measured:
[1] = test system: Mycobacterium tuberculosis; assay: Antituberculosis activity against Mycobacterium tuberculosis H37Rv under aerobic conditions by microplate alamar blue assay; assay type: functional
[2] = test system: Mycobacterium tuberculosis; assay: Antituberculosis activity against Mycobacterium tuberculosis H37Rv under anaerobic conditions by fluorescence based low-oxygen-recovery assay; assay type: functional

| Structure (SMILES) | MIC [1] [µM] | MIC [2] [µM] |
| --- | --- | --- |
| O=[N+]([O-])c1cn2c(n1)OC[C@@H](Oc1ccc(-c3ccc(F)cc3)nc1)C2 | 0.5 (≈ 0.178 µg/mL) | 5.6 (≈ 2 µg/mL) |
| O=[N+]([O-])c1cn2c(n1)OC[C@@H](OCC#Cc1cccc(-c3ccc(C(F)(F)F)cc3)c1)C2 | 0.27 (≈ 0.12 µg/mL) | 1.3 (≈ 0.576 µg/mL) |
| O=[N+]([O-])c1cn2c(n1)OC[C@@H](OCC#Cc1cccc(-c3ccc(C(F)(F)F)nc3)c1)C2 | 0.12 (≈ 0.0533 µg/mL) | 0.96 (≈ 0.427 µg/mL) |
| O=[N+]([O-])c1cn2c(n1)OC[C@@H](OCCOc1ccc(-c3ccc(C(F)(F)F)cc3)cn1)C2 | 0.02 (≈ 0.00901 µg/mL) | 3 (≈ 1.35 µg/mL) |
| O=[N+]([O-])c1cn2c(n1)OC[C@@H](Oc1ccc(C(F)(F)F)cn1)C2 | 2.9 (≈ 0.958 µg/mL) | 16 (≈ 5.28 µg/mL) |
| O=[N+]([O-])c1cn2c(n1)OC[C@@H](OCC#Cc1ccc(-c3ccc(OC(F)F)cc3)cc1)C2 | 0.14 (≈ 0.0618 µg/mL) | 1.8 (≈ 0.795 µg/mL) |
| O=[N+]([O-])c1cn2c(n1)OC[C@@H](Oc1ccc(-c3ccc(C(F)(F)F)cc3)cc1)C2 | 0.39 (≈ 0.158 µg/mL) | > 128 |
| O=[N+]([O-])c1cn2c(n1)OC[C@@H](Oc1ccc(-c3ccc(C(F)(F)F)cc3)nc1)C2 | 0.78 (≈ 0.317 µg/mL) | 1.2 (≈ 0.488 µg/mL) |
| O=[N+]([O-])c1cn2c(n1)OC[C@@H](OCC#Cc1ccc(-c3ccc(OC(F)F)cc3)cn1)C2 | 0.025 (≈ 0.0111 µg/mL) | 0.44 (≈ 0.195 µg/mL) |
| O=[N+]([O-])c1cn2c(n1)OC[C@@H](OCCCc1ccc(-c3ccc(F)cc3)cc1)C2 | 0.045 (≈ 0.0179 µg/mL) | 0.92 (≈ 0.366 µg/mL) |
| O=[N+]([O-])c1cn2c(n1)OC[C@@H](Oc1cc(-c3ccc(C(F)(F)F)cc3)ccn1)C2 | 0.88 (≈ 0.358 µg/mL) | 32 (≈ 13 µg/mL) |
| O=[N+]([O-])c1cn2c(n1)OC[C@@H](OC/C=C/c1ccc(-c3ccc(OC(F)F)cc3)cc1)C2 | 0.08 (≈ 0.0355 µg/mL) | 4.3 (≈ 1.91 µg/mL) |
| O=[N+]([O-])c1cn2c(n1)OC[C@@H](OCCCC#Cc1ccc(-c3ccc(OC(F)F)cc3)cc1)C2 | 0.035 (≈ 0.0164 µg/mL) | 39 (≈ 18.3 µg/mL) |
| O=[N+]([O-])c1cn2c(n1)OC[C@@H](OCC#Cc1ccc(-c3ccc(F)cc3)nc1)C2 | 0.05 (≈ 0.0197 µg/mL) | 1 (≈ 0.394 µg/mL) |
| O=[N+]([O-])c1cn2c(n1)OC[C@@H](OC/C=C/c1ccc(-c3ccc(C(F)(F)F)nc3)cc1)C2 | 0.02 (≈ 0.00893 µg/mL) | 15 (≈ 6.7 µg/mL) |
| O=[N+]([O-])c1cn2c(n1)OC[C@@H](Oc1ncc(-c3ccc(C(F)(F)F)nc3)cn1)C2 | 1.3 (≈ 0.531 µg/mL) | 17 (≈ 6.94 µg/mL) |
| O=[N+]([O-])c1cn2c(n1)OC[C@@H](OCCCC#Cc1ccc(-c3ccc(F)cc3)cc1)C2 | 0.07 (≈ 0.0295 µg/mL) | 1.6 (≈ 0.674 µg/mL) |
| O=[N+]([O-])c1cn2c(n1)OC[C@@H](Oc1ncc(-c3ccc(F)cc3)cn1)C2 | 1.6 (≈ 0.572 µg/mL) | 7.4 (≈ 2.64 µg/mL) |
| O=[N+]([O-])c1cn2c(n1)OC[C@@H](OCC#Cc1ccc(-c3ccc(F)cc3)cc1)C2 | 0.035 (≈ 0.0138 µg/mL) | 2.7 (≈ 1.06 µg/mL) |
| O=[N+]([O-])c1cn2c(n1)OC[C@@H](OCC#Cc1ccc(-c3ccc(C(F)(F)F)cc3)cc1)C2 | 0.22 (≈ 0.0975 µg/mL) | 0.86 (≈ 0.381 µg/mL) |

| Structure (SMILES) | MIC [1] [µM] | MIC [2] [µM] |
| --- | --- | --- |
| O=[N+]([O-])c1cn2c(n1)OC[C@@H](Oc1ccc(-c3ccc(C(F)(F)F)cc3)cn1)C2 | 0.1 (≈ 0.0406 µg/mL) | 12 (≈ 4.88 µg/mL) |
| O=[N+]([O-])c1cn2c(n1)OC[C@@H](Oc1cc(-c3ccc(F)cc3)ncn1)C2 | 0.99 (≈ 0.354 µg/mL) | 15 (≈ 5.36 µg/mL) |
| O=[N+]([O-])c1cn2c(n1)OC[C@@H](Oc1ccc(-c3ccc(C(F)(F)F)nc3)nc1)C2 | 0.45 (≈ 0.183 µg/mL) | 17 (≈ 6.92 µg/mL) |
| O=[N+]([O-])c1cn2c(n1)OC[C@@H](OCCOc1ncc(-c3ccc(C(F)(F)F)cc3)cn1)C2 | 0.12 (≈ 0.0542 µg/mL) | 5.4 (≈ 2.44 µg/mL) |
| O=[N+]([O-])c1cn2c(n1)OC[C@@H](OCCCC#Cc1ccc(-c3ccc(C(F)(F)F)nc3)cc1)C2 | 0.11 (≈ 0.052 µg/mL) | 63 (≈ 29.8 µg/mL) |
| O=[N+]([O-])c1cn2c(n1)OC[C@@H](OC/C=C/c1ccc(-c3ccc(C(F)(F)F)cc3)cc1)C2 | 0.045 (≈ 0.02 µg/mL) | 43 (≈ 19.2 µg/mL) |
| O=[N+]([O-])c1cn2c(n1)OC[C@@H](OCC#Cc1ccc(-c3ccc(F)cc3)cn1)C2 | 0.05 (≈ 0.0197 µg/mL) | 0.85 (≈ 0.335 µg/mL) |
| O=[N+]([O-])c1cn2c(n1)OC[C@@H](Oc1cc(-c3ccc(C(F)(F)F)nc3)ncn1)C2 | 3 (≈ 1.22 µg/mL) | 62 (≈ 25.3 µg/mL) |
| O=[N+]([O-])c1cn2c(n1)OC[C@@H](Oc1ccc(-c3ccc(C(F)(F)F)nc3)cn1)C2 | 0.42 (≈ 0.171 µg/mL) | 14 (≈ 5.7 µg/mL) |
| O=[N+]([O-])c1cn2c(n1)OC[C@@H](OCC#Cc1ccc(-c3ccc(C(F)(F)F)nc3)cn1)C2 | 0.44 (≈ 0.196 µg/mL) | 6.6 (≈ 2.94 µg/mL) |
| O=[N+]([O-])c1cn2c(n1)OC[C@@H](Oc1cccc(-c3ccc(OC(F)F)cc3)n1)C2 | 0.52 (≈ 0.21 µg/mL) | 4.4 (≈ 1.78 µg/mL) |
| O=[N+]([O-])c1cn2c(n1)OC[C@@H](Oc1ccnc(-c3ccc(F)cc3)c1)C2 | 0.67 (≈ 0.239 µg/mL) | 8.5 (≈ 3.03 µg/mL) |
| O=[N+]([O-])c1cn2c(n1)OC[C@@H](OCCCC#Cc1ccc(-c3ccc(C(F)(F)F)cc3)cc1)C2 | 0.085 (≈ 0.0401 µg/mL) | > 128 |
| O=[N+]([O-])c1cn2c(n1)OC[C@@H](OCCOc1ccc(-c3ccc(C(F)(F)F)nc3)cn1)C2 | 0.22 (≈ 0.0993 µg/mL) | 10 (≈ 4.51 µg/mL) |
| O=[N+]([O-])c1cn2c(n1)OC[C@@H](OCCCc1ccc(-c3ccc(C(F)(F)F)cn3)cc1)C2 | 0.055 (≈ 0.0247 µg/mL) | 3 (≈ 1.35 µg/mL) |
| O=[N+]([O-])c1cn2c(n1)OC[C@@H](Oc1ccnc(-c3ccc(C(F)(F)F)cc3)c1)C2 | 0.65 (≈ 0.264 µg/mL) | > 128 |
| O=[N+]([O-])c1cn2c(n1)OC[C@@H](Oc1cc(-c3ccc(C(F)(F)F)cc3)ncn1)C2 | 0.8 (≈ 0.326 µg/mL) | 17 (≈ 6.92 µg/mL) |
| O=[N+]([O-])c1cn2c(n1)OC[C@@H](OCC#Cc1cccc(-c3ccc(F)cc3)c1)C2 | 0.04 (≈ 0.0157 µg/mL) | 0.88 (≈ 0.346 µg/mL) |
| CC(O[C@@H]1COc2nc([N+](=O)[O-])cn2C1)c1ccc(-c2ccc(F)cc2)cc1 (stereo not given in full) | 0.22 (≈ 0.0843 µg/mL) | 1.3 (≈ 0.498 µg/mL) |
| O=[N+]([O-])c1cn2c(n1)OC[C@@H](Oc1ccc(-c3ccc(F)cc3)cc1)C2 | 0.31 (≈ 0.11 µg/mL) | 1.2 (≈ 0.426 µg/mL) |

| Structure (SMILES) | MIC [1] [µM] | MIC [2] [µM] |
| --- | --- | --- |
| CC(O[C@@H]1COc2nc([N+](=O)[O-])cn2C1)c1ccc(-c2ccc(C(F)(F)F)nc2)cc1 (stereo not given in full) | 0.39 (≈ 0.169 µg/mL) | 4.3 (≈ 1.87 µg/mL) |
| O=[N+]([O-])c1cn2c(n1)OC[C@@H](OCCOc1ccc(-c3ccc(F)cc3)cn1)C2 | 0.02 (≈ 0.00801 µg/mL) | 2.4 (≈ 0.961 µg/mL) |
| O=[N+]([O-])c1cn2c(n1)OC[C@@H](OCCOc1ccc(-c3ccc(C(F)(F)F)nc3)cc1)C2 | 0.025 (≈ 0.0113 µg/mL) | 4.1 (≈ 1.85 µg/mL) |
| O=[N+]([O-])c1cn2c(n1)OC[C@@H](OCCOc1ncc(-c3ccc(C(F)(F)F)nc3)cn1)C2 | 0.63 (≈ 0.285 µg/mL) | 56 (≈ 25.3 µg/mL) |
| O=[N+]([O-])c1cn2c(n1)OC[C@@H](Oc1ccc(-c3ccc(C(F)(F)F)nc3)cc1)C2 | 0.51 (≈ 0.207 µg/mL) | 4.1 (≈ 1.67 µg/mL) |
| O=[N+]([O-])c1cn2c(n1)OC[C@@H](Oc1cc(-c3ccc(F)cc3)ccn1)C2 | 5.2 (≈ 1.85 µg/mL) | 28 (≈ 9.98 µg/mL) |
| O=[N+]([O-])c1cn2c(n1)OC[C@@H](OC/C=C/c1ccc(-c3ccc(F)cc3)cc1)C2 | 0.09 (≈ 0.0356 µg/mL) | 3.1 (≈ 1.23 µg/mL) |
| O=[N+]([O-])c1cn2c(n1)OC[C@@H](Oc1cccc(-c3ccc(F)cc3)n1)C2 | 3.2 (≈ 1.14 µg/mL) | 27 (≈ 9.62 µg/mL) |
| O=[N+]([O-])c1cn2c(n1)OC[C@@H](OCC#Cc1ccc(-c3ccc(C(F)(F)F)cc3)cn1)C2 | 0.02 (≈ 0.00889 µg/mL) | 0.75 (≈ 0.333 µg/mL) |
| O=[N+]([O-])c1cn2c(n1)OC[C@@H](OCC#Cc1ccc(-c3ccc(C(F)(F)F)nc3)nc1)C2 | 0.12 (≈ 0.0534 µg/mL) | 3.7 (≈ 1.65 µg/mL) |
| O=[N+]([O-])c1cn2c(n1)OC[C@@H](Oc1ncc(-c3ccc(C(F)(F)F)cc3)cn1)C2 | 0.21 (≈ 0.0855 µg/mL) | 3 (≈ 1.22 µg/mL) |
| O=[N+]([O-])c1cn2c(n1)OC[C@@H](OCCOc1ccc(-c3ccc(C(F)(F)F)cc3)cc1)C2 | 0.04 (≈ 0.018 µg/mL) | 104 (≈ 46.7 µg/mL) |
| O=[N+]([O-])c1cn2c(n1)OC[C@@H](OCCOc1ccc(-c3ccc(F)cc3)cc1)C2 | 0.04 (≈ 0.016 µg/mL) | 3.4 (≈ 1.36 µg/mL) |
| O=[N+]([O-])c1cn2c(n1)OC[C@@H](Oc1ccc(-c3ccc(F)cc3)cn1)C2 | 0.37 (≈ 0.132 µg/mL) | 15 (≈ 5.34 µg/mL) |
| O=[N+]([O-])c1cn2c(n1)OC[C@@H](OCCCc1ccc(-c3ccc(C(F)(F)F)nc3)cc1)C2 | 0.07 (≈ 0.0314 µg/mL) | 1.9 (≈ 0.852 µg/mL) |
| O=[N+]([O-])c1cn2c(n1)OC[C@@H](OCCOc1ncc(-c3ccc(F)cc3)cn1)C2 | 0.13 (≈ 0.0522 µg/mL) | 13 (≈ 5.22 µg/mL) |
| O=[N+]([O-])c1cn2c(n1)OC[C@@H](Oc1cccc(-c3ccc(C(F)(F)F)cc3)n1)C2 | 0.55 (≈ 0.223 µg/mL) | 35 (≈ 14.2 µg/mL) |
| CC(O[C@@H]1COc2nc([N+](=O)[O-])cn2C1)c1ccc(-c2ccc(C(F)(F)F)cc2)cc1 (stereo not given in full) | 0.18 (≈ 0.078 µg/mL) | 2.2 (≈ 0.953 µg/mL) |
| O=[N+]([O-])c1cn2c(n1)OC[C@@H](Oc1ccnc(-c3ccc(C(F)(F)F)nc3)c1)C2 | 14 (≈ 5.7 µg/mL) | > 128 |
| O=[N+]([O-])c1cn2c(n1)OC[C@@H](OCC#Cc1cccc(-c3ccc(OC(F)F)cc3)c1)C2 | 0.09 (≈ 0.0397 µg/mL) | 1.4 (≈ 0.618 µg/mL) |
